Test results from patent US11000033B2, “Ketone or oxime compound, and herbicide” (NISSAN CHEMICAL CORPORATION, priority 2014, dated 2021).

Key:
Format in all cases: in vivo
transplanted rice plant = experiment: Test Example 1: effect on crop, application before weed generation in submerged conditions (symbol a); settings: application herbicide amount 320 g/ha
Outline: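 Alluvial soil pots flooded to 4 cm water, sown with Echinochloa oryzacola, Scirpus juncoides and Monochoria vaginalis, then transplanted with 2.5 leaf stage rice seedlings; pre-emergence application. Greenhouse 25° C. to 30° C.; scored 0–5 by herbicidal ratio 3 weeks after application.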

[1] = tested on: Echinochloa crus-galli var. crus-galli; experiment: Test Example 3: herbicidal effect by foliage application, Wagner pot (symbol H); settings: application herbicide amount 320 g/ha
Outline: (§1)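 The compound, formulated as an emulsion and diluted with water to a predetermined rate, is applied uniformly to leaves of two-week-old seedlings growing in submerged alluvial soil at 25–30 °C. Rice is included. Each plant is assessed 3 weeks later using defined criteria.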

Leptochloa chinensis = experiment: Test Example 3: herbicidal effect by foliage application, Wagner pot (symbol D); settings: application herbicide amount 320 g/ha
Outline: as §1

[2] = tested on: directly sowed rice plant; experiment: Test Example 3: effect on crop by foliage application, Wagner pot (symbol b); settings: application herbicide amount 320 g/ha
Outline: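 Wagner pot (1/10000 are), alluvial soil, submerged 0.1–0.5 cm; sown E. crus-galli var. crus-galli, L. chinensis, C. difformis, rice; greenhouse 25–30 °C.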

Digitaria ciliaris = experiment: Test Example 4: herbicidal effect by soil treatment (symbol F); settings: application herbicide amount 320 g/ha
Outline: (§2)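 Seeds were sown in sterilized diluvial soil, covered with about 1.5 cm of soil, and the soil surface was sprayed with a water-diluted emulsion of the compound at a predetermined rate. Plants grew in a greenhouse at 25° C. to 30° C.; effects were scored visually 3 weeks after application.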

Setaria viridis [3] = experiment: Test Example 4: herbicidal effect by soil treatment (symbol G); settings: application herbicide amount 320 g/ha
Outline: as §2

Lolium multiflorum Lam. = experiment: Test Example 4: herbicidal effect by soil treatment (symbol K); settings: application herbicide amount 320 g/ha
Outline: as §2

Abutilon theophrasti [4] = experiment: Test Example 4: herbicidal effect by soil treatment (symbol M); settings: application herbicide amount 320 g/ha
Outline: as §2

Amaranthus retroflexus = experiment: Test Example 4: herbicidal effect by soil treatment (symbol N); settings: application herbicide amount 320 g/ha
Outline: as §2

Chenopodium album = experiment: Test Example 4: herbicidal effect by soil treatment (symbol O); settings: application herbicide amount 320 g/ha
Outline: as §2

Stellaria media [5] = experiment: Test Example 4: herbicidal effect by soil treatment (symbol P); settings: application herbicide amount 320 g/ha
Outline: as §2

Galium spurium = experiment: Test Example 4: herbicidal effect by soil treatment (symbol Q); settings: application herbicide amount 320 g/ha
Outline: as §2

Veronica persica = experiment: Test Example 4: herbicidal effect by soil treatment (symbol R); settings: application herbicide amount 320 g/ha
Outline: as §2

Setaria viridis [6] = experiment: Test Example 5: herbicidal effect by foliage application, plastic box (symbol G); settings: 320 g/ha, 3 weeks after application
Outline: (§3)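 Visual herbicidal score, taken three weeks post-application, of seedlings sprayed on the foliage with water-diluted emulsion at a predetermined amount; plants were 14 days old, greenhouse-raised at 25° C. to 30° C.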

[7] = tested on: Echinochloa crus-galli var. crus-galli; experiment: Test Example 5: herbicidal effect by foliage application, plastic box (symbol H); settings: 320 g/ha, 3 weeks after application
Outline: as §3

Avena fatua = experiment: Test Example 5: herbicidal effect by foliage application, plastic box (symbol I); settings: 320 g/ha, 3 weeks after application
Outline: as §3

Apera spica-venti = experiment: Test Example 5: herbicidal effect by foliage application, plastic box (symbol L); settings: 320 g/ha, 3 weeks after application
Outline: as §3

Abutilon theophrasti [8] = experiment: Test Example 5: herbicidal effect by foliage application, plastic box (symbol M); settings: 320 g/ha, 3 weeks after application
Outline: as §3

Stellaria media [9] = experiment: Test Example 5: herbicidal effect by foliage application, plastic box (symbol P); settings: 320 g/ha, 3 weeks after application
Outline: as §3

rice plant = experiment: Test Example 5: effect on crop by foliage application, plastic box (symbol b); settings: 320 g/ha, 3 weeks after application
Outline: (§4)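 Plants were raised from seed in a greenhouse (25° C. to 30° C.) after sowing in a plastic box of sterilized diluvial soil.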

beet = experiment: Test Example 5: effect on crop by foliage application, plastic box (symbol f); settings: 320 g/ha, 3 weeks after application
Outline: as §4

rapeseed = experiment: Test Example 5: effect on crop by foliage application, plastic box (symbol g); settings: 320 g/ha, 3 weeks after application
Outline: as §4

In the case of CON=C(C)CC1CC(O)=C(c2c(F)cc(C)cc2OC)C1=O (stereo not drawn) [6-108], the “Effect grade on crop, a: transplanted rice plant” value (shortened to “Effect grade on crop”) (transplanted rice plant) was 5 (Herbicidal ratio of 90% or more (almost completely withered)), the “herbicidal effect on H (Echinochloa crus-galli var. crus-galli), grade 0-5” value (from here on “herbicidal effect on H”) [1] was 5 (Herbicidal ratio of 90% or more (almost completely withered)) and the “herbicidal effect on D (Leptochloa chinensis), grade 0-5” value (shortened to “herbicidal effect on D”) (Leptochloa chinensis) was 5 (Herbicidal ratio of 90% or more (almost completely withered)). For the same compound, the “effect on crop b (directly sowed rice plant), grade 0-5” value (“effect on crop b” below) [2] was 5 (Herbicidal ratio of 90% or more (almost completely withered)), the “Herbicidal effect grade, F: Digitaria ciliaris” value (from here on “Herbicidal effect grade, F”) (Digitaria ciliaris) was 5 (Herbicidal ratio of 90% or more (almost completely withered)) and the “Herbicidal effect grade, G: Setaria viridis” value (shortened to “Herbicidal effect grade, G”) (Setaria viridis [3]) was 4 (Herbicidal ratio of 70% or higher and lower than 90%). The “Herbicidal effect grade, K: Lolium multiflorum Lam.” value (from here on “Herbicidal effect grade, K”) (Lolium multiflorum Lam.) was 5 (Herbicidal ratio of 90% or more (almost completely withered)), the “Herbicidal effect grade, M: Abutilon theophrasti” value (“Herbicidal effect grade, M” for short) (Abutilon theophrasti [4]) was 5 (Herbicidal ratio of 90% or more (almost completely withered)) and the “Herbicidal effect grade, N: Amaranthus retroflexus” value (shortened to “Herbicidal effect grade, N”) (Amaranthus retroflexus) was 4 (Herbicidal ratio of 70% or higher and lower than 90%). The “Herbicidal effect grade, O: Chenopodium album” value (“Herbicidal effect grade, O” below) (Chenopodium album) was 5 (Herbicidal ratio of 90% or more (almost completely withered)), the “Herbicidal effect grade, P: Stellaria media” value (“Herbicidal effect grade, P” below) (Stellaria media [5]) was 3 (Herbicidal ratio of 40% or higher and lower than 70%) and the “Herbicidal effect grade, Q: Galium spurium” value (“Herbicidal effect grade, Q” below) (Galium spurium) was 3 (Herbicidal ratio of 40% or higher and lower than 70%). The “Herbicidal effect grade, R: Veronica persica” value (from here on “Herbicidal effect grade, R”) (Veronica persica) was 3 (Herbicidal ratio of 40% or higher and lower than 70%), the “G: Setaria viridis, herbicidal effect (criteria of Test Example 1)” value (shortened to “G: Setaria viridis, herbicidal effect”) (Setaria viridis [6]) was 5 (Herbicidal ratio of 90% or more (almost completely withered)) and the “H: Echinochloa crus-galli var. crus-galli, herbicidal effect (criteria of Test Example 1)” value [7] was 5 (Herbicidal ratio of 90% or more (almost completely withered)). The “I: Avena fatua, herbicidal effect (criteria of Test Example 1)” value (“I: Avena fatua, herbicidal effect” for short) (Avena fatua) was 5 (Herbicidal ratio of 90% or more (almost completely withered)), the “L: Apera spica-venti, herbicidal effect (criteria of Test Example 1)” value (“L: Apera spica-venti, herbicidal effect” below) (Apera spica-venti) was 5 (Herbicidal ratio of 90% or more (almost completely withered)) and the “M: Abutilon theophrasti, herbicidal effect (criteria of Test Example 1)” value (Abutilon theophrasti [8]) was 5 (Herbicidal ratio of 90% or more (almost completely withered)). For the same compound, the “P: Stellaria media, herbicidal effect (criteria of Test Example 1)” value (“P: Stellaria media, herbicidal effect” for short) (Stellaria media [9]) was 3 (Herbicidal ratio of 40% or higher and lower than 70%), the “b: directly sowed rice plant, effect on crop (criteria of Test Example 1)” value (“b: directly sowed rice plant, effect” below) (rice plant) was 5 (Herbicidal ratio of 90% or more (almost completely withered)) and the “f: beet, effect on crop (criteria of Test Example 1)” value (from here on “f: beet, effect on crop”) (beet) was 0 (Herbicidal ratio of 5% or lower (almost no effect)). The “g: rapeseed, effect on crop (criteria of Test Example 1)” value (from here on “g: rapeseed, effect on crop”) (rapeseed) was 5 (Herbicidal ratio of 90% or more (almost completely withered)).

With CON=C(C)CC1CC(OC(=O)N2CCCC2)=C(c2c(C)cc(C)cc2OC)C1=O (stereo not drawn) [6-110] the “Effect grade on crop” value (transplanted rice plant) was 5 (Herbicidal ratio of 90% or more (almost completely withered)), the “herbicidal effect on H” value [1] was 5 (Herbicidal ratio of 90% or more (almost completely withered)) and the “herbicidal effect on D” value (Leptochloa chinensis) was 5 (Herbicidal ratio of 90% or more (almost completely withered)). The “effect on crop b” value [2] was 5 (Herbicidal ratio of 90% or more (almost completely withered)), the “Herbicidal effect grade, F” value (Digitaria ciliaris) was 0 (Herbicidal ratio of 5% or lower (almost no effect)) and the “Herbicidal effect grade, G” value (Setaria viridis [3]) was 0 (Herbicidal ratio of 5% or lower (almost no effect)). For the same compound, the “Herbicidal effect grade, K” value (Lolium multiflorum Lam.) was 3 (Herbicidal ratio of 40% or higher and lower than 70%), the “Herbicidal effect grade, M” value (Abutilon theophrasti [4]) was 0 (Herbicidal ratio of 5% or lower (almost no effect)) and the “Herbicidal effect grade, N” value (Amaranthus retroflexus) was 0 (Herbicidal ratio of 5% or lower (almost no effect)). For the same compound, the “Herbicidal effect grade, O” value (Chenopodium album) was 0 (Herbicidal ratio of 5% or lower (almost no effect)), the “Herbicidal effect grade, P” value (Stellaria media [5]) was 0 (Herbicidal ratio of 5% or lower (almost no effect)) and the “Herbicidal effect grade, Q” value (Galium spurium) was 0 (Herbicidal ratio of 5% or lower (almost no effect)). For the same compound, the “Herbicidal effect grade, R” value (Veronica persica) was 0 (Herbicidal ratio of 5% or lower (almost no effect)), the “G: Setaria viridis, herbicidal effect” value (Setaria viridis [6]) was 5 (Herbicidal ratio of 90% or more (almost completely withered)) and the “H: Echinochloa crus-galli var. crus-galli, herbicidal effect (criteria of Test Example 1)” value [7] was 5 (Herbicidal ratio of 90% or more (almost completely withered)). The “I: Avena fatua, herbicidal effect” value (Avena fatua) was 5 (Herbicidal ratio of 90% or more (almost completely withered)), the “L: Apera spica-venti, herbicidal effect” value (Apera spica-venti) was 5 (Herbicidal ratio of 90% or more (almost completely withered)) and the “M: Abutilon theophrasti, herbicidal effect (criteria of Test Example 1)” value (Abutilon theophrasti [8]) was 4 (Herbicidal ratio of 70% or higher and lower than 90%). The “P: Stellaria media, herbicidal effect” value (Stellaria media [9]) was 1 (Herbicidal ratio of 5% or higher and lower than 20%), the “b: directly sowed rice plant, effect” value (rice plant) was 5 (Herbicidal ratio of 90% or more (almost completely withered)) and the “f: beet, effect on crop” value (beet) was 0 (Herbicidal ratio of 5% or lower (almost no effect)). The “g: rapeseed, effect on crop” value (rapeseed) was 4 (Herbicidal ratio of 70% or higher and lower than 90%).

For CON=C(C)CC1CC(OC(=O)N2CCCCC2)=C(c2c(C)cc(C)cc2OC)C1=O (stereo not drawn) [6-111], the “Effect grade on crop” value (transplanted rice plant) was 5 (Herbicidal ratio of 90% or more (almost completely withered)), the “herbicidal effect on H” value [1] was 5 (Herbicidal ratio of 90% or more (almost completely withered)) and the “herbicidal effect on D” value (Leptochloa chinensis) was 5 (Herbicidal ratio of 90% or more (almost completely withered)). For the same compound, the “effect on crop b” value [2] was 5 (Herbicidal ratio of 90% or more (almost completely withered)), the “Herbicidal effect grade, F” value (Digitaria ciliaris) was 4 (Herbicidal ratio of 70% or higher and lower than 90%) and the “Herbicidal effect grade, G” value (Setaria viridis [3]) was 0 (Herbicidal ratio of 5% or lower (almost no effect)). The “Herbicidal effect grade, K” value (Lolium multiflorum Lam.) was 5 (Herbicidal ratio of 90% or more (almost completely withered)), the “Herbicidal effect grade, M” value (Abutilon theophrasti [4]) was 0 (Herbicidal ratio of 5% or lower (almost no effect)) and the “Herbicidal effect grade, N” value (Amaranthus retroflexus) was 0 (Herbicidal ratio of 5% or lower (almost no effect)). The “Herbicidal effect grade, O” value (Chenopodium album) was 0 (Herbicidal ratio of 5% or lower (almost no effect)), the “Herbicidal effect grade, P” value (Stellaria media [5]) was 0 (Herbicidal ratio of 5% or lower (almost no effect)) and the “Herbicidal effect grade, Q” value (Galium spurium) was 0 (Herbicidal ratio of 5% or lower (almost no effect)). For the same compound, the “Herbicidal effect grade, R” value (Veronica persica) was 0 (Herbicidal ratio of 5% or lower (almost no effect)), the “G: Setaria viridis, herbicidal effect” value (Setaria viridis [6]) was 5 (Herbicidal ratio of 90% or more (almost completely withered)) and the “H: Echinochloa crus-galli var. crus-galli, herbicidal effect (criteria of Test Example 1)” value [7] was 5 (Herbicidal ratio of 90% or more (almost completely withered)). The “I: Avena fatua, herbicidal effect” value (Avena fatua) was 5 (Herbicidal ratio of 90% or more (almost completely withered)), the “L: Apera spica-venti, herbicidal effect” value (Apera spica-venti) was 5 (Herbicidal ratio of 90% or more (almost completely withered)) and the “M: Abutilon theophrasti, herbicidal effect (criteria of Test Example 1)” value (Abutilon theophrasti [8]) was 2 (Herbicidal ratio of 20% or higher and lower than 40%). The “P: Stellaria media, herbicidal effect” value (Stellaria media [9]) was 1 (Herbicidal ratio of 5% or higher and lower than 20%), the “b: directly sowed rice plant, effect” value (rice plant) was 5 (Herbicidal ratio of 90% or more (almost completely withered)) and the “f: beet, effect on crop” value (beet) was 0 (Herbicidal ratio of 5% or lower (almost no effect)). The “g: rapeseed, effect on crop” value (rapeseed) was 4 (Herbicidal ratio of 70% or higher and lower than 90%).
